Experimental findings from patent US5767116A, “Bicyclic aromatic compounds as therapeutic agents” (Knoll Atkiengesellschaft, priority 1993, dated 1998) are described below.

The term Ki denotes the equilibrium dissociation constant of an inhibitor or competing ligand from its target. A lower Ki goes with tighter binding.

One assay concerns the target T1, 5-HT1A receptors (Rattus norvegicus, UniProt P19327).
T1 sequence (P19327 1-422): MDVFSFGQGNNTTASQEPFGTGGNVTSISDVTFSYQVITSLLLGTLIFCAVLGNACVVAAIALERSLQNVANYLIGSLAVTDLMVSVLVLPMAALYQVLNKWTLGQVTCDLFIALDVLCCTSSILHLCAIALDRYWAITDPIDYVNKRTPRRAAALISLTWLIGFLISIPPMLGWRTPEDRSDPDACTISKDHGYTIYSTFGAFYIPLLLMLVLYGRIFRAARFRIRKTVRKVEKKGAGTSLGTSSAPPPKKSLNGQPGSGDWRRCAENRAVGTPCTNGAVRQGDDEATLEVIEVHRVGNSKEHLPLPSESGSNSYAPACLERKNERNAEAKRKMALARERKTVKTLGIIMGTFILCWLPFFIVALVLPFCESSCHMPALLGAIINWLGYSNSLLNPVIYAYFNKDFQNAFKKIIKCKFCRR
The experiment in a line: biochemical. The class given is binding, rat (male Charles River CD). The settings on record: for Ki: 25° C., 30 minutes. The procedure: The pellet was rehomogenised in the same buffer, incubated at 37° C. for 10 minutes and centrifuged at 30,000 g at 4° C. for 10 minutes. […] Aliquots (400 μl; equivalent to 2.5 mg wet weight of tissue/tube) of this suspension were added to tubes containing the ligand (50 μl; 2 nM) and distilled water (50 μl; total binding) or 5-HT (50 μl; 10 µM; non-specific binding) or test compound (50 μl; at a single concentration of 10^-6 M or at 10 concentrations ranging from 10^-11 -10^-3 M). The ligand was [^3 H]8-hydroxy-2-(dipropylamino)tetralin([^3 H]8-OH-DPAT) and the mixture was incubated at 25° C. for 30 minutes before the incubation was terminated by rapid filtration.
(§1) The filters were punched out into vials, scintillation fluid added and radioactivity determined by liquid scintillation counting. The percentage displacement of specific binding of the tritiated ligand was calculated for the single concentration (10^-6 M) of test compound. Displacement curves were then produced for those compounds which displaced ≥50% of specific binding of the tritiated ligand at 10^-6 M using a range of concentrations of the compound. […] The inhibition coefficient Ki was then calculated using the formula [formula] in which [ligand] is the concentration of the tritiated ligand used and KD is the equilibrium dissociation constant for the ligand.

The next assay addresses T2, α2-adrenoceptors (Rattus norvegicus, UniProt P22909).
T2 sequence (P22909 1-465): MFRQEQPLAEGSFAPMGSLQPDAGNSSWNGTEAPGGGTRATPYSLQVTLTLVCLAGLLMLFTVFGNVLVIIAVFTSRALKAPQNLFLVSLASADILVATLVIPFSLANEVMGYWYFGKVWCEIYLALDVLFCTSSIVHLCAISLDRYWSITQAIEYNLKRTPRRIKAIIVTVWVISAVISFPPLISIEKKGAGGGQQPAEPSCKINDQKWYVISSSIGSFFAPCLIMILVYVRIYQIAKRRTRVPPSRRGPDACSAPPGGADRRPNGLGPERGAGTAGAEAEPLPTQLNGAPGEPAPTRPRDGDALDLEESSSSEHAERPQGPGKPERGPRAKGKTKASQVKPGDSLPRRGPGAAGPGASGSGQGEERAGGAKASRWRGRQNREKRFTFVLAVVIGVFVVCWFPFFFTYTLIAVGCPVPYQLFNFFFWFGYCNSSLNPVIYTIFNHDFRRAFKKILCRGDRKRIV
Description: inhibition of tritiated ligand (tritiated idazoxan) binding to α2-adrenoceptors in vitro (frontal cortical tissue). Further details: species or system rat (male Charles River CD). The settings on record: for Ki: 0° C., 75 minutes, > from highest concentration which displaced ≤50% of the ligand; for inhibition at 1 µM: read-out: % displacement at 10^-6 M, α2, 10^-6 M, rat frontal cortical tissue, tritiated idazoxan. The procedure:
Frontal cortical tissue from the brains of male Charles River CD rats weighing between 150-250 g were homogenised in ice-cold 0.25M sucrose (1:30 w/v) and centrifuged at 1,000 g at 4° C. for 12 minutes. The supernatant was stored on ice and the pellet was rehomogenised in 0.25M sucrose (1:15 w/v) and centrifuged at 850 g at 4° C. for 12 minutes. Combined supernatants were diluted with 5 mM Tris-HCl (pH 7.5) containing 0.5M ethylenediamine tetraacetic acid (EDTA) readjusted to pH 7.5 (at 25° C.) with 1M sodium hydroxide to 1:80 w/v, and centrifuged at 30,000 g at 4° C. for 10 minutes. The resulting pellet was resuspended in 5 mM Tris-HCl (pH 7.5) containing 5.68 mM L-ascorbic acid and 5 mM EDTA readjusted to pH 7.5 (at 25° C.) with 1M sodium hydroxide, and centrifuged at 30,000 g for 10 minutes. The final pellet was resuspended in 50 mM Tris-HCl (pH 7.5) containing 5.68 mM L-ascorbic acid and 5 mM EDTA (equivalent to 12.5 mg wet weight of tissue/ml) and used immediately in the binding assay. Aliquots (400 μl; equivalent to 5 mg wet weight of tissue/tube) of this suspension were added to tubes containing the ligand (50 μl; 1 nM) and distilled water (50 μl; total binding) or phentolamine (50 μl; 5 μM; non-specificbinding) or test compound (50 μl; at a single concentration of 10^-6 M or at 10 concentrations ranging from 10^-11 -10^-3 M). The ligand was tritiated idazoxan ((1,4-[6,7(n)-^3 H]benzodioxan-2-yl)-2-imidazoline hydrochloride) and the mixture was incubated at 0° C. for 75 minutes before the incubation was terminated by rapid filtration.
as §1, with “The filters were washed with ice-cold Tris-HCl buffer and dried. The filters” for “The filters”

The target in the next assay is D2 dopamine receptors (Rattus norvegicus, UniProt P61169). Description: biochemical. The format is binding, rat (male Charles River CD).
For the next assay, the target named is α1-adrenoceptors. Description: inhibition of tritiated ligand ([7-methoxy-^3 H]prazosin) binding to α1-adrenoceptors in vitro (whole cortical tissue). Also on record: species or system rat (male Charles River CD). The settings on record: rat whole cortical tissue; for Ki: 30° C., 30 minutes, > from highest concentration which displaced ≤50% of the ligand; for % displacement at 10^-6 M, α1: 30 min, 1 µM. The procedure: The supernatant was centrifuged at 30,000 g at 4° C. for 10 minutes. […] Aliquots (400 μl; equivalent to 5 mg wet weight of tissue/tube) of this suspension were added to tubes containing the ligand (50 μl; 0.1 nM) and distilled water (50 μl; total binding) or phentolamine (50 μl; 5 μM; non-specific binding) or test compound (50 μl; at a single concentration of 10^-6 M or at 10 concentrations ranging from 10^-11 -10^-3 M). The ligand was [7-methoxy-^3 H]prazosin and the mixture was incubated at 30° C. for 30 minutes before the incubation was terminated by rapid filtration.
as §1

The mark [1] stands for this setting: rat hippocampal tissue, [^3 H]8-OH-DPAT.
[2] abbreviates: rat frontal cortical tissue, tritiated idazoxan.
Where [3] appears, read: rat striatal tissue, tritiated (S)-sulpiride, 4° C., 40 minutes.
[4] abbreviates: 10^-6 M, rat hippocampal tissue, [^3 H]8-OH-DPAT, read-out: % displacement at 10^-6 M, 5-HT1A.

Structures can show the parent of a compound that is named as a salt. Where two headings read alike, the source gives them in different places. A value given as a limit tells only on which side of the number the result lay.

D2 dopamine receptors, sequence (P61169 whole entry): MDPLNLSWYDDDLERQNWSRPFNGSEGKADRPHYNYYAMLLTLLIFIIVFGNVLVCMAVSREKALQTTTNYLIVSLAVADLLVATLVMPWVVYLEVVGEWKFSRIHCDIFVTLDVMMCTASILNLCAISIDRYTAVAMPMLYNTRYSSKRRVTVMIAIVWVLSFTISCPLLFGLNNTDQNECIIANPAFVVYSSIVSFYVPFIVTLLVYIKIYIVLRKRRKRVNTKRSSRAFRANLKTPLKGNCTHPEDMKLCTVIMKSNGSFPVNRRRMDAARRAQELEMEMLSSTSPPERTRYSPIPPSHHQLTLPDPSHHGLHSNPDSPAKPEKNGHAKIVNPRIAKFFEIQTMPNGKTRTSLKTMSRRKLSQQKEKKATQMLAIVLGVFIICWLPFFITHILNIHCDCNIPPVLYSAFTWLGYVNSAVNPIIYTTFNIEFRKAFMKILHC

In the case of `FC(F)(F)c1cccnc1NCCNCC1COc2ccccc2O1` (stereo not drawn) [Example 8, N-(1,4-benzodioxan-2-ylmethyl)-N'-[3-(trifluoromethyl)-2-pyridyl)]-ethanediamine dihydrochloride], the Ki was determined as 18.8 nM on 5-HT1A receptors (setting [1]), 70 nM at α2-adrenoceptors (setting [2]), 110 nM at D2 dopamine receptors (setting [3]) and 14 nM on α1-adrenoceptors.

In the case of `COc1ccccc1N1CCC(CNCC2COc3cc(Cl)c(Cl)cc3O2)CC1` (stereo not drawn) [Example 21, N-(6,7-dichloro-1,4-benzodioxan-2-ylmethyl)-1-[1-(2-methoxyphenyl)piperid-4-yl]methylaminehydrochloride], the inhibition at 1 µM at 5-HT1A receptors (setting [4]) came out at 74%; at D2 dopamine receptors (10^-6 M, rat striatal tissue, tritiated (S)-sulpiride, read-out: % displacement at 10^-6 M, D2), 104%. The Ki at α2-adrenoceptors (setting [2]) and on α1-adrenoceptors was more than 500 nM each time.

`c1ccc2c(c1)OCC(CNCC1CCN(c3ncnc4ccccc34)CC1)O2` (stereo not drawn) [Example 4, N-(1,4-benzodioxan-2-ylmethyl)-1-[1-(quinazolin-4-yl)piperid-4-yl]methylamine dihydrochloride]: the Ki worked out at 3.8 nM at 5-HT1A receptors (setting [1]), 30 nM on α2-adrenoceptors (setting [2]), 35.8 nM on D2 dopamine receptors (setting [3]) and 13 nM on α1-adrenoceptors.

With `COc1ccccc1N1CCC(CNCC2COc3cccc(OC)c3O2)CC1` (stereo not drawn) [Example 6, N-(8-methoxy-1,4-benzodioxan-2-ylmethyl)-1-[1-(2-methoxyphenyl)piperid-4-yl]methylamine dihydrochloride], the Ki at 5-HT1A receptors (setting [1]) is 252 nM; at D2 dopamine receptors (setting [3]), 8.5 nM; on α1-adrenoceptors, 3.7 nM. For the same compound, the inhibition at 1 µM at α2-adrenoceptors was 92%.

For the compound `Cl.Clc1ccccc1N1CCC(CNCC2COc3ccccc3O2)CC1` (stereo not drawn) [Example 22, N-(1,4-benzodioxan-2-ylmethyl)-1-[1-(2-chlorophenyl)piperid-4-yl]methylamine hydrochloride], the inhibition at 1 µM is 95% at 5-HT1A receptors (read-out: % displacement at 10^-6 M, 5-HT1A, 10^-6 M, rat hippocampal tissue, [^3 H]8-OH-DPAT) and 63% on α2-adrenoceptors. This compound returned a Ki at D2 dopamine receptors (setting [3]) of 43.5 nM. For the same compound, the “% displacement at 10^-6 M, α1” value with α1-adrenoceptors stood at 71%.

For `COc1cccc2c1CC(CNCC1CCN(c3ncccn3)CC1)CO2` (stereo not drawn) [Example 11, N-(5-methoxy-3,4-dihydro-2H-1-benzopyran-3-ylmethyl)-1-(1-(pyrimidin-2-yl)piperid-4-yl]methylamine monofumarate], the Ki is 14.7 nM on 5-HT1A receptors (setting [1]), more than 500 nM at α2-adrenoceptors (setting [2]), 12.9 nM on D2 dopamine receptors (setting [3]) and 31 nM on α1-adrenoceptors.

As to `COc1ccccc1N1CCC(CNCC2COc3ccc4ccccc4c3O2)CC1` (stereo not drawn) [Example 24, 1-[1-(2-methoxyphenyl)piperid-4-yl]-N-(naphtho[1,2-b]dioxan-2-ylmethyl) methylamine hydrochloride 1.3 hydrate], the inhibition at 1 µM on 5-HT1A receptors (setting [4]) came out at 97%. Besides, the Ki on α2-adrenoceptors (setting [2]) was more than 500 nM; on D2 dopamine receptors (setting [3]) it was 81.3 nM; on α1-adrenoceptors, more than 500 nM.

Consider `c1ccc2c(c1)OCC(CNCC1CCN(c3cnccn3)CC1)O2` (stereo not drawn) [Example 1, N-(1,4-benzodioxan-2-ylmethyl)-1-[1-(pyrazin-2-yl)piperid-4-yl]methylamine1.4 hydrochloride], for which the Ki was found to be 14 nM at 5-HT1A receptors (setting [1]), 31 nM at α2-adrenoceptors (setting [2]), 15.6 nM at D2 dopamine receptors (setting [3]) and 23.9 nM at α1-adrenoceptors.

Consider `COc1ccccc1N1CCC(CNCC2COc3ccccc3O2)CC1` (stereo not drawn) [Example 2, N-(1,4-benzodioxan-2-ylmethyl)-1-[1-(2-methoxyphenyl)piperid-4-yl]methylamine dihydrochloride], for which the Ki turned out to be 7.7 nM at 5-HT1A receptors (setting [1]), 394 nM at α2-adrenoceptors (setting [2]), 19 nM at D2 dopamine receptors (setting [3]) and 78 nM on α1-adrenoceptors.

On to `COc1ccccc1NCCCNCC1COc2cccc(OC)c2O1.O=C(O)/C=C\C(=O)O` (stereo not drawn) [Example 17, N-(8-methoxy-1,4-benzodioxan-2-ylmethyl)-N'-(2-methoxyphenyl)-1,3-propanediamine maleate], for which the inhibition at 1 µM at 5-HT1A receptors (setting [4]) amounted to 99%. In addition, the Ki was more than 500 nM at α2-adrenoceptors (setting [2]) and 4.3 nM at D2 dopamine receptors (setting [3]). Also, the “% displacement at 10^-6 M, α1” value in the assay on α1-adrenoceptors turned out to be 93%.

As to `COc1cccc2c1CC(CNCC1CCN(c3ncccn3)CC1)CC2` (stereo not drawn) [Example 9, N-(8-methoxy-1,2,3,4-tetrahydronaphth-2-ylmethyl)-1-[1-(pyrimidin-2-yl)piperid-4-yl]methylamine 1.1 hydrochloride], the Ki at 5-HT1A receptors (setting [1]) is 8.2 nM; on α2-adrenoceptors (setting [2]), more than 500 nM; at D2 dopamine receptors (setting [3]), 46.4 nM; at α1-adrenoceptors, 34 nM.

Take “N-(5-fluoro-1,4-benzodioxan-2-ylmethyl)-1-[1-(2-methoxyphenyl) piperid-4-yl]methylamine hydrochloride and N-(8-fluoro-1,4-benzodioxan-2-ylmethyl)-1-[1-(2-methoxyphenyl) piperid-4-yl]methylamine hydrochloride [Example 23]”: the “% displacement at 10^-6 M, 5-HT1A” value on 5-HT1A receptors (10^-6 M, rat hippocampal tissue, [^3 H]8-OH-DPAT) was found to be 92%. The “% displacement at 10^-6 M, α2” value on α2-adrenoceptors (10^-6 M, rat frontal cortical tissue, tritiated idazoxan, 1 µM) came to 75%. The compound further yielded a Ki on D2 dopamine receptors of 43 nM. Further, the “% displacement at 10^-6 M, α1” value in the assay with α1-adrenoceptors is listed as 92%.
